According to patent US20070269451A1, “Nucleic Acid Vaccination” (priority 1999, published 2007):
Entries after “also recorded” stand apart in the source; their conditions may differ.

Assays:
[1] = system: antibody SM3; assay: Antibody binding curve for the mutant polypeptides (SM3 ELISA, FIG. 4); settings: peptide coated at 3 ug/ml
Description: (§1) Peptides were prepared as aqueous solutions in 50 mM sodium bicarbonate buffer pH9.6 and coated onto Nunc Maxisorp plates at 4° C. overnight at a range of concentrations between 50 μg/ml and 25 ng/ml. After extensive washing with TBS-Tween (Tris-buffered saline, pH7.4 containing 0.05% Tween20), the plates were blocked with blocking solution (3% w/v bovine serum albumin in TBS-Tween) for 2 hours at room temperature. Anti-MUC1 antibodies HMFG1 (Novocastra, Newcastle, UK), HMFG2 (Novocastra), SM3 (Girling et al, 1989, Int J Cancer 43:1072-1076) and ATR1 (Bynum et al, 1995, Hybridoma 14:587-591) were diluted in blocking solution, added to the plate and incubated at room temperature for one hour. After washing, bound antibody was labelled by incubation with HRP-conjugated anti-mouse IgG (P260, Dako, Denmark) at 1/2000 dilution in blocking buffer. The plate was washed again and bound conjugate detected using Fast OPD colour reagents (Sigma, Poole, UK). The reaction was stopped by the addition of 3M sulphuric acid, and the OPD product quantitated by measuring the absorbance at 490 nm.
The polypeptides described in table 1 above were again used in this experiment. The methodology was essentially similar to Example 1 except that peptides were coated onto an ELISA plate at a fixed concentration of 3 ug/ml, and different concentrations of antibody SM3 were applied.

[2] = system: anti-MUC1 antibody HMFG2; assay: ELISA binding of anti-MUC1 antibody HMFG2 to synthetic MUC1 VNTR peptides; parameters: key: +++ indicates strong binding; ++ indicates fair binding; + indicates weak binding; − indicates no significant binding; settings: peptide coated 50 μg/ml to 25 ng/ml; semiquantitative scale; absorbance at 490 nm
From the text: (§2) Synthetic peptides were designed containing mutations at the glycosylation sites. Particular attention was focused on substitutions at the threonine residue in this sequence (T11). Table 1 below indicates the peptides that were designed and their mutated glycosylation sites. Peptides containing two identical copies of the designed VNTR were synthesised at Genemed Synthesis Inc (San Francisco, Calif.). These peptides were then screened for their ability to bind to a number of anti-MUC1 monoclonal antibodies in an ELISA.
as §1
(§3) The ELISA signal for each antibody and peptide combination is ranked according to a semiquantitative scale, where +++ indicates strong binding, ++ indicates fair binding, + indicates weak binding, and − indicates no significant binding.

[3] = system: anti-MUC1 antibody HMFG1; assay: ELISA binding of anti-MUC1 antibody HMFG1 to synthetic MUC1 VNTR peptides; parameters: key: +++ indicates strong binding; ++ indicates fair binding; + indicates weak binding; − indicates no significant binding; settings: peptide coated 50 μg/ml to 25 ng/ml; semiquantitative scale; absorbance at 490 nm
From the text: as §2, §1, §3

[4] = system: anti-MUC1 antibody ATR1; assay: ELISA binding of anti-MUC1 antibody ATR1 to synthetic MUC1 VNTR peptides; parameters: key: +++ indicates strong binding; ++ indicates fair binding; + indicates weak binding; − indicates no significant binding; settings: peptide coated 50 μg/ml to 25 ng/ml; semiquantitative scale; absorbance at 490 nm
From the text: as §2, §1, §3

[5] = system: anti-MUC1 antibody SM3; assay: ELISA binding of anti-MUC1 antibody SM3 to synthetic MUC1 VNTR peptides; parameters: key to ELISA signal, Antibody SM3: +++ indicates strong binding; ++ indicates fair binding; + indicates weak binding; − indicates no significant binding; settings: for binding for the SM3 antibody (in words): Table 2; for ELISA signal, Antibody SM3: peptide coated 50 μg/ml to 25 ng/ml, semiquantitative scale, absorbance at 490 nm
From the text: as §2, §1, §3

[6] = different concentrations of SM3

Substance	SM3 antibody binding pattern / affinity across a range of antibody concentrations [1, 6]	ELISA signal, Antibody HMFG2 [2]	ELISA signal, Antibody HMFG1 [3]	ELISA signal, Antibody ATR1 [4]	binding for the SM3 antibody (in words) [5]	ELISA signal, Antibody SM3 [5]	SM3 antibody binding pattern / affinity across a range of antibody concentrations ([1]; different concentrations of SM3, listed as Mut 5A)
Ac-(PAHGVVAAPDVRPAPGAVAP)2-NH2 [Mut5V]	does little to reduce the affinity	+++	−	+++	maintain binding	+++	
Ac-(PAHGVVAAPDWRPAPGAVAP)2-NH2 [Mut5W]		−	−	++		−	
Ac-(PAHGVVAAPDTRPAPGAVAP)2-NH2 [Mut4]		+++	++	+++		+++	
Ac-(PAHGVVAAPDNRPAPGAVAP)2-NH2 [Mut5N]	substantially the same results as those shown for Mut5W; also recorded: essentially the same as those shown for Mut5W	−	−	+++		−	
Ac-(PAHGVVAAPDARPAPGAVAP)2-NH2 [Mut5A]	essentially the same as those shown for Mut5W	−	++	+++		−	substantially the same results as those shown for Mut5W
Ac-(PAHGVVAAPDIRPAPGAVAP)2-NH2 [Mut5I]	does little to reduce the affinity	+++	++	++	maintain binding	+++	
Ac-(PAHGVVAAPDPRPAPGAVAP)2-NH2 [Mut5P]	substantially the same results as those shown for Mut5W; also recorded: essentially the same as those shown for Mut5W	−	+	+		−	
